# Experimental data from publication PMC3927586, “Protein kinase C-delta inactivation inhibits the proliferation and survival of cancer stem cells in culture and in vivo” (BMC Cancer, 2014).
# pIC50: −log10 of the molar value. Like-named read-outs stand apart in the source and are kept apart here.
# Experiments:
# recombinant PKCα = target: T1, recombinant PKCα (Homo sapiens, UniProt P17252); assay: PKC kinase activity assay (Z-lyte), PKCα; format: biochemical
# T1 construct: purchased Invitrogen
# Procedure: Assays were carried out using recombinant PKCδ or PKCα, (Invitrogen) and the Z-lyte Kinase Assays (Invitrogen) with a “PKC-kinase-specific” peptide substrate. FRET interactions produce a change in fluorescence (ex455/ex520) upon phosphorylation. The kit was used according to the manufacturer’s instructions.
# PrCSC cells = assay: Cell proliferation (MTT) of prostate cancer stem cells; format: cell-based, human; settings: as early as 24 hr after exposure
# Procedure: (§1) Cell proliferation was assessed using an MTT [3-(4,5-dimethylthiazol-2-yl)-2,5-diphenyltetrazolium bromide] assay (Roche, Mannheim, Germany). The number of viable cells growing in a single well on a 96-well microtiter plate was estimated by adding 10 μl of MTT solution (5 mg/ml in phosphate-buffered saline [PBS]). After 4 h of incubation at 37°C, the stain was diluted with 100 μl of dimethyl sulfoxide. The optical densities were quantified at a test wavelength of 570 nm and a reference wavelength of 690 nm on a multiwell spectrophotometer. In some assays, MTS was used as substrate (Promega, Madison, WI), and the absorbance of the product was monitored at 490 nm. Cell enumeration was carried out using a hemocytometer, and viable cells identified by trypan blue exclusion.
# Figure 2 Effects of PKCδ inhibitors on human cancer stem cells. (A) PCSC and PrCSC cells at 80% confluence were exposed to rottlerin. DMSO served as vehicle control (Vehicle). After 24 and 72 hr of exposure, cell mass was evaluated by MTT assay. […] Cytotoxicity was evaluated by LDH-release assay. […] Viable cells were enumerated and re-plated in media without inhibitor, and colony numbers were quantitated 15 days later. p values for comparison of treatment effects on clonogenic capacity reached significance (p=0.005) at 18 hr of exposure and remained significant for all subsequent exposure times. […]
# MCF7 cells = assay: Cell proliferation (MTT) of adherent MCF7 cells; format: cell-based, human; settings: for concentration at which effect on cell number reached significance: MCF7, MTT, 24 hr, p ≤ 0.02; for concentration required to repress growth by more than 80%: MCF7 adherent population, MTT
# Procedure: as §1
# Figure 4 Effects of PKCδ inhibitors on human tumor cell spheroid formation. (A) Hs578T and MCF7 were plated under adherent or non-adherent conditions. Tumor spheroids and adherent cells were collected at 96 hr, stained for CD24 and CD44, and analyzed by flow cytometry. (B) Hs578T, MCF7, breast cancer stem cells (BCSC) and pancreatic cancer stem cells (PCSC) were plated in tumor spheroid media, in the presence of rottlerin, BJE6-106, or DMSO (Control). Tumor spheroids were enumerated at 96 hr, and normalized to the number of spheroids in the control cultures (assigned an arbitrary value of 100%). p values for comparison between vehicle and rottlerin or BJE6-106 effects were significant (p≤0.001). Photographs are of representative areas of the culture plates. (C) MCF7 cells were exposed BJE6-106 or to rottlerin at the indicated concentrations. The corresponding equivalent volume of solvent (DMSO) was used as a vehicle control (Vehicle). After 24, 48 and 72 hr of exposure, cell mass was evaluated by MTT assay. Control values were normalized to 100%. p values for comparison between vehicle and rottlerin effects on cell number at 24 hr reached significance at 5 μM, and for BJE6-106 at 0.5 μM (p ≤ 0.02), and were significant for all concentrations tested at 48 and 72 hr time points. (D) Hs578T cells were exposed to vehicle or BJE6-106 (1 μM) for 6, 12, 24, 48 or 96 hr. Viable cells were enumerated and re-plated in media without BJE6-206, and spheroid numbers were quantitated 96 hr later. p values for comparison between vehicle and BJE6-106 effects on spheroid number were significant after 6 hr of exposure (p≤0.02), and remained significant at all time points thereafter. Error bars represent SEM.
# MCF 10A cells = assay: Cell proliferation (MTT) of non-transformed breast epithelial cells; format: cell-based, human; settings: for concentration at which effect on MCF 10A cell number reached significance: 48 hr, p < 0.05; for pIC50: Homo sapiens, MCF-10A, 72 hr, read-out: IC50 for the parental MCF 10A cells
# Procedure: as §1
# Figure 5 Effects of PKCδ inhibitors on growth and spheroid formation in non-transformed and transformed human breast epithelial cells. MCF 10A cells and cells from the derived tumorigenic line MCF 10C (also called M3), were grown to 80% confluence in 96-well plates and then exposed to rottlerin at concentrations ranging from 1 to 20 μM (A) or to BJE6-106 at concentrations ranging from 0.1 to 20 μM (B). The corresponding equivalent volume of solvent (DMSO) was used as a vehicle control (Vehicle). After 24, 48 and 72 hr of exposure, cell mass was evaluated by MTT assay. Control (vehicle) values were normalized to 100%. Error bars represent SEM. p values for comparison between vehicle and PKCδ inhibitors on MCF 10A cell number only reached significance (p < 0.05) at 48 hr at 20 μM for rottlerin, and at 1 μM for BJE6-106. In contrast, significant effects of the inhibitors on the MCF 10C cells were observed as early as 24 hr for rottlerin (at 5 μM) and for BJE6-106 (at 0.1 μM). (C) MCF 10A and MCF 10C cells were plated at 10,000 cells per well in tumor spheroid media, and spheroid formation was assessed at days 10 and 21. Representative photographs are shown. (D) MCF 10C cells were plated at 10,000 cells per well in tumor spheroid media, in the presence of rottlerin (5 μM), or BJE6-106 (1 μM or 5 μM), or DMSO vehicle (Control). Tumor spheroids were enumerated at 10 days. Representative photographs are shown. (E) Spheroid numbers were normalized to the number of spheroids in the control cultures (assigned an arbitrary value of 100%) and plotted. Error bars represent SEM. p values for comparison between vehicle and rottlerin or BJE6-106 effects on spheroid number were significant (p < 0.001).
# [1] = system: cells with aberrant Ras signaling; design: method as in PMID 24506253; settings: cited from earlier work
SMILES,pIC50 (recombinant PKCα),effect on proliferation of PrCSC (PrCSC cells),concentration at which effect on cell number reached significance (MCF7 cells) [µM],concentration required to repress growth by more than 80% (MCF7 cells) [µM],concentration at which effect on MCF 10A cell number reached significance (MCF 10A cells) [µM],pIC50 (MCF 10A cells),"pIC50 (recombinant PKCα; in vitro kinase assay, read-out: PKCα IC50)",concentrations producing cytotoxic activity against cells with aberrant Ras signaling [1]
"CC(=O)c1c(O)c(C)c(O)c(Cc2c(O)c3c(c(C(=O)/C=C/c4ccccc4)c2O)OC(C)(C)C=C3)c1O [rottlerin, Rottlerin, reference compound]",4.12,significant dose-dependent inhibition of proliferation,5,> 10,20,< 4.70,,
"CC1(C)C=Cc2cc(CCn3c4ccccc4c4ccccc43)cc(C=O)c2O1 [BJE6-106, 6-(2-(9H-carbazol-9-yl)ethyl)-2,2-dimethyl-2H-chromene-8-carbaldehyde]",,,0.5,> 1,1,< 4.70,4.30,nM concentrations
